Each block holds one molecule with its values, some of them ahead of it. No end group written: not given here.
Target: T1, human TAS1R2-K689Q/TAS1R3-WT (Homo sapiens, UniProt Q7RTX0+Q8TE23, K689Q)
T1 construct: expressed in transfected cells; host or cells: HEK293T-Gα16gust44
T1 sequence (Q8TE23 20-839 K689Q): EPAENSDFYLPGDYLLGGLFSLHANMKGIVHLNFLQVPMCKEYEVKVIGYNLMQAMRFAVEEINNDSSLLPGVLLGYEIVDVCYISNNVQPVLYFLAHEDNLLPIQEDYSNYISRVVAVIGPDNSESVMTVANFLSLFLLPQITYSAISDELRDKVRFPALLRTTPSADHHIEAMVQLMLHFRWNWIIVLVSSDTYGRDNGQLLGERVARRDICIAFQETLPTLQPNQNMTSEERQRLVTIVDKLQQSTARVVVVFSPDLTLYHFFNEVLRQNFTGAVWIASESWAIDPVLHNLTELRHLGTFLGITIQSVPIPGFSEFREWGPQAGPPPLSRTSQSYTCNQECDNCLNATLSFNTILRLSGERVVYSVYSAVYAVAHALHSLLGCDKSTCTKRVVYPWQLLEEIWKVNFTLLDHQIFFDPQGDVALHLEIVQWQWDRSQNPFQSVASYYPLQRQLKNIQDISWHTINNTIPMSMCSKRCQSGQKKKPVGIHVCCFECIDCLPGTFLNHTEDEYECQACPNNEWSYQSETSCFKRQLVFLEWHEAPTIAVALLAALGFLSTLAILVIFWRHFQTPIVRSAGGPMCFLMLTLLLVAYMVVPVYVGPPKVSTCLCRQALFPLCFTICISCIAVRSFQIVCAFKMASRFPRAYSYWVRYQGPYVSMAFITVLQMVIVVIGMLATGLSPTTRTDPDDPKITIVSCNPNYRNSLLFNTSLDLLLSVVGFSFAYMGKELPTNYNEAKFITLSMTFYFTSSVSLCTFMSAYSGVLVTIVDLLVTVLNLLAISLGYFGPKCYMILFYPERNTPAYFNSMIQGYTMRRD
T1 sequence (Q7RTX0 21-852): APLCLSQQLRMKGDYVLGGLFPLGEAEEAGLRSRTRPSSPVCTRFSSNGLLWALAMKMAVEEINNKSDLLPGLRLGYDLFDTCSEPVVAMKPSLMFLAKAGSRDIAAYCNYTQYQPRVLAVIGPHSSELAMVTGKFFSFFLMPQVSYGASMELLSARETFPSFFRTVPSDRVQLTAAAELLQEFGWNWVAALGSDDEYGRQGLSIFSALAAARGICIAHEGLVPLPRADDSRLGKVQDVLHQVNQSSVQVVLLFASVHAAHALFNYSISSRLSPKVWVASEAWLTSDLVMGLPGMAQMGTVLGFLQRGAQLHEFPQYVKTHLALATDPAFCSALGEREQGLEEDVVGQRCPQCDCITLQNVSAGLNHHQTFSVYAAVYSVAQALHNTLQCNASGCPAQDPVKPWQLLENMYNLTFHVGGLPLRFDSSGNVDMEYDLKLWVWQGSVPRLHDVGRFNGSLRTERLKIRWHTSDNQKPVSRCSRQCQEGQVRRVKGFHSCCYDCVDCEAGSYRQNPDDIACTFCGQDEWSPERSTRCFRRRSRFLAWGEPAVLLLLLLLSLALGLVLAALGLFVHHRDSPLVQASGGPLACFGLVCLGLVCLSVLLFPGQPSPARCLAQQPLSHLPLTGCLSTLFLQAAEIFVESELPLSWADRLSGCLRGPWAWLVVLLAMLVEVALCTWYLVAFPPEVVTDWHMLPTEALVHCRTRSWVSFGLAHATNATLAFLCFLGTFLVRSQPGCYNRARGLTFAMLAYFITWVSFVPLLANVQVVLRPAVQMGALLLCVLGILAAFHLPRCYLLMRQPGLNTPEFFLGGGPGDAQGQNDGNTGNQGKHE
Assay: Calcium mobilisation assay, TAS1R2 variant K689Q with TAS1R3-WT
Format: cell-based
Settings: "-": no activation; for Max ΔF/F0: maximal signal amplitude; for EC50: "nd": not determined
Text: The coding sequences for TAS1R2 and TAS1R3 were commercially synthesised, and the human codon was optimised for expression in human cells. The coding sequences of human TAS1R2 and TAS1R3 were subcloned and inserted into the mammalian expression vectors pcDNA6/myc-HisA and pcDNA4/myc-HisA (Invitrogen; Thermo Fisher Scientific; Illkirch, France) between the EcoRI and NotI restriction sites, generating the plasmids pcDNA6-TAS1R2 and pcDNA4-TAS1R3, respectively. To increase protein expression in mammalian cells, an upstream start codon was used, which was a sequence called MAX, corresponding to the QBI SP163 element also described in pcDNA4-HisMax (Invitrogen; Thermo Fisher Scientific; Illkirch, France). To measure the expression level of the receptor by immunohistochemistry, we used the FLAG sequence ([…]) in the C-terminal position, which encodes the FLAG tag epitope. SNP variants of TAS1R2 and TAS1R3 were constructed based on […], respectively, using site-directed mutagenesis (Genewiz; Leipzig, Germany).
The HEK293T cells were kindly provided by Jay P. Slack (Givaudan Flavors Corporation; Cincinnati, OH, USA). HEK293T cells stably transfected with Gα16gust44 [43, 67] were seeded in poly-D-lysine-coated clear-bottom black 96-well plates (0.35 × 10^5 cells/well) in high-glucose DMEM supplemented with 2 mM GlutaMAX, 10% dialysed foetal bovine serum with penicillin/streptomycin and G418 (400 μg/mL) at 37 °C and 6.3% CO2 in a humidified atmosphere as previously reported. […] As a negative control, HEK293T cells were mock-transfected with the empty expression vector. After a further 24 h of incubation, the HEK293T cells were washed with C1 buffer (130 mM NaCl, 5 mM KCl, 10 mM HEPES pH 7.4 and 2 mM CaCl2). The 96-well plates containing the cells were then stimulated with sweet-tasting compounds. […] Different concentration ranges were tested depending on the sweet compound injected. The Ca^2+ changes were expressed as fractional changes in fluorescent light intensity: ΔF/F = (F − F0)/F0, where F was the fluorescent light intensity at each point, and F0 was the value of emitted fluorescent light prior to stimulus application. To calculate dose–response relationships, the changes in fluorescence upon stimulus application were averaged, mock-subtracted and baseline-corrected. The dose–response data obtained were adjusted using a 4-parameter logistic equation. The half-maximal effective concentrations (EC50 values) and maximal signal amplitudes were calculated using SigmaPlot software (version 15.0) (Systat Software; San Jose, CA, USA).
For in vitro calcium mobilisation assay performed on hTAS1R2-SNPs, hTAS1R3-SNPs and mTAS1R3-I60T, 6 to 7 concentrations were tested for each sweet compound, plus buffer alone. All concentration–receptor combinations were measured in duplicate, and each experiment was repeated at least 4 times (8 wells/concentration). Results were expressed for each concentration as ΔF/F mean ± SEM and represented as dose–response curves.

R1 = Variant EC50/WT EC50: 4.3
Max ΔF/F0: 0.02
Molecule: CC1=CC(=O)NS(=O)(=O)O1 [Acesulfame K, acesulfame K]

Molecule: O=S(=O)(O)NC1CCCCC1 [Cyclamate, cyclamate]
EC50: 5010 ± 220 µM

Molecule: C[C@H](CC[C@@H](O[C@@H]1O[C@H](CO[C@@H]2O[C@H](CO)[C@@H](O)[C@H](O)[C@H]2O)[C@@H](O)[C@H](O)[C@H]1O[C@@H]1O[C@H](CO)[C@@H](O)[C@H](O)[C@H]1O)C(C)(C)O)[C@H]1CC[C@@]2(C)[C@@H]3CC=C4[C@@H](CC[C@H](O[C@@H]5O[C@H](CO[C@@H]6O[C@H](CO)[C@@H](O)[C@H](O)[C@H]6O)[C@@H](O)[C@H](O)[C@H]5O)C4(C)C)[C@]3(C)[C@H](O)C[C@]12C [Mogroside V, mogroside V]
R1 = Variant EC50/WT EC50: 3.3
EC50: 57.9 ± 0.4 µM
Max ΔF/F0: 0.54 ± 0.01

EC50: > 1000 µM
Molecule: COc1ccc(CCC(=O)c2c(O)cc(O[C@@H]3O[C@H](CO)[C@@H](O)[C@H](O)[C@H]3O[C@@H]3O[C@@H](C)[C@H](O)[C@@H](O)[C@H]3O)cc2O)cc1O [NHDC, neohesperidin dihydrochalcone]

R1 = Variant EC50/WT EC50: 4.3
EC50: 3.58 ± 0.46 µM
Max ΔF/F0: 0.12 ± 0.01
Molecule: COC(=O)[C@H](Cc1ccccc1)NC(=O)[C@H](CC(=O)O)NCCC(C)(C)C [Neotame]

R1 = Variant EC50/WT EC50: 7.6
EC50: 132 ± 16.9 µM
Max ΔF/F0: 1.36 ± 0.01
Molecule: C=C(C)[C@@H]1CC=C(/C=N/O)CC1 [Perillartine, perillartine]

R1 = Variant EC50/WT EC50: 4.5
EC50: 75.8 ± 2.3 µM
Max ΔF/F0: 0.36 ± 0.01
Molecule: C=C1C[C@@]23CC[C@H]4[C@@](C)(CCC[C@@]4(C)C(=O)O[C@@H]4O[C@H](CO)[C@@H](O)[C@H](O[C@@H]5O[C@H](CO)[C@@H](O)[C@H](O)[C@H]5O)[C@H]4O[C@@H]4O[C@H](CO)[C@@H](O)[C@H](O)[C@H]4O)[C@@H]2CC[C@]1(O[C@@H]1O[C@H](CO)[C@@H](O)[C@H](O[C@@H]2O[C@H](CO)[C@@H](O)[C@H](O)[C@H]2O)[C@H]1O[C@@H]1O[C@H](CO)[C@@H](O)[C@H](O)[C@H]1O)C3 [Rebaudioside M, rebaudioside M]

R1 = Variant EC50/WT EC50: 3.4
EC50: 307 µM
Max ΔF/F0: 0.08 ± 0.01
Molecule: OC[C@H]1O[C@H](O[C@]2(CCl)O[C@H](CCl)[C@@H](O)[C@@H]2O)[C@H](O)[C@@H](O)[C@H]1Cl [Sucralose]

R1 = Variant EC50/WT EC50: 5.7
Max ΔF/F0: 0.64 ± 0.03
Molecule: brazzein (QDKCKKVYENYPVSKCQLANQCNYDCKLDKHARSGECFYDEKRNLQCICDYCEY; ends and bridges not checked; cysteine pairing not given here; UniProt P56552 1-54, looked up) [sweet-tasting protein obtained by recombinant production using the yeast Pichia pastoris]

R1 = Variant EC50/WT EC50: 4.4
Max ΔF/F0: 0.87 ± 0.09
Molecule: thaumatin

EC50: 33.5 µM
B1: thaumatin (protein)
chain: ATFEIVNRCSYTVWAAASKGDAALDAGGRQLNSGESWTINVEPGTKGGKIWARTDCYFDDSGSGICKTGDCGGLLRCKRFGRPPTTLAEFSLNQYGKDYIDISNIKGFNVPMDFSPTTRGCRGVRCAADIVGQCPAKLKAPGGGCNDACTVFQTSEYCCTTGKCGPTEYSRFFKRLCPDAFSYVLDKPTTVTCPGSSNYRVTFCPTA
modifications: Eight disulfides
notes: sweet-tasting plant protein, E957

From paper PMC11945486, “TAS1R2/TAS1R3 Single-Nucleotide Polymorphisms Affect Sweet Taste Receptor Activation by Sweeteners: The SWEET Project” (Nutrients, 2025)
